The text below walks through data of US20070276030A1, “Pyranobenzothiophene derivatives to treat infection with hepatitis c virus” (priority 2003, published 2007).

As usually defined, the IC50 is the midpoint of a concentration-inhibition curve.

Each structure is given as a SMILES string. Like-named read-outs stand apart in the source and are kept apart here.

In assay [1] the target is T1, HCV RdRp NS5B d21BK (BK strain, genotype 1b) (Hepatitis C virus genotype 1b, UniProt P26663).
T1 construct: NS5B from the BK strain (genotype 1b) is expressed in E. coli as a protein in which the 21 C-terminal amino acids are replaced; made in house; host or cells: E. coli
T1 sequence (P26663 2420-2989): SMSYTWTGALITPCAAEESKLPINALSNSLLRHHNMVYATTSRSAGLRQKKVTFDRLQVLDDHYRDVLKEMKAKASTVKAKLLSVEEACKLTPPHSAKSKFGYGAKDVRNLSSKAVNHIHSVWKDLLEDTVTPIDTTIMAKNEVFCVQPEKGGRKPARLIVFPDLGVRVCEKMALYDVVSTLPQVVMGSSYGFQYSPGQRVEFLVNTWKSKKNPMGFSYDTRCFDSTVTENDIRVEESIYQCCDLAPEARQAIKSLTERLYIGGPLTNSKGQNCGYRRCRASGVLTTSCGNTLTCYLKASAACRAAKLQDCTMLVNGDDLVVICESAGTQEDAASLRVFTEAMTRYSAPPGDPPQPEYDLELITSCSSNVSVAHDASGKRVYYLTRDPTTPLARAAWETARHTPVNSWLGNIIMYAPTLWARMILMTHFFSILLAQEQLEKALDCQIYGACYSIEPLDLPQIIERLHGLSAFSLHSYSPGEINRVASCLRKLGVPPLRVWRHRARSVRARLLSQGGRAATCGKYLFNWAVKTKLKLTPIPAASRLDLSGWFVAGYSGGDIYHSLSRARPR
In words: Hepatitis C polymerase (NS5B) inhibition, radioactive filter assay. The class given is biochemical. As to conditions: for inhibition at 20 µM: read-out: HCV pol % inh at 20 μM. From the text:
The ability of the compounds of the present invention to inhibit Hepatitis C Polymerase was established by the following experimental procedure:
NS5B from the BK strain (genotype 1b) is expressed in E. coli as a protein in which the 21 C-terminal amino acids are replaced with a short linker and a hexahistidine tag ([…]). The purified protein is mixed with radioactive nucleotides and allowed to replicate a heteropolymeric RNA substrate, primed by an endogenous short hairpin, resulting in an approximately 760 nt product. The radioactive product is captured on a filter and quantitated after removal of the unincorporated nucleotides.
Dilute nucleotides 1:1000 to 10 μM (GTP and CTP) or 1:100 to 100 μM (ATP and UTP) into RNase free water.
(1) Compounds 10 μl at 10 μg/ml in 15% Dimethylsulfoxide (DMSO)
Add 20 μl enzyme mix into each well of the assay plate. Incubate compound and enzyme at room temperature for 15 minutes.
(3) Template Mix—Prepare Ahead
Spin down a tube of RNA (5 μg/tube stored in 75% ethanol and 0.3 M sodium acetate) in a microcentrifuge for 20 minutes at 4° C. One tube is enough for 1-1.5 plates. Remove as much ethanol from the tube as possible by inverting the tube. Be gentle, pellet RNA may not adhere to the tube. Vacuum dry the RNA. Resuspend the RNA by adding 1 ml of DEPC water, close the cap of the tube tightly. To dissolve RNA, incubate RNA solution on ice for ˜60 minutes and gently vortex. Spin briefly to ensure all RNA solution is down to the bottom of the tube before opening cap. Gently transfer RNA solution into a 5 ml or larger tube. Add another 3 ml of DEPC water (total 4 ml of volume).
Add the following volumes of reagents
Add 20 μl template mix per reaction (i.e. 20 ng of pOF per reaction or ˜3 nM). (4) Incubate reaction at room temperature (22-25° C.) for 2 hours. (5) Stop reaction by adding 50 μl of 170 mM EDTA.
Final concentration of EDTA is 85 mM.
(6) Prewet filters of Millipore multiscreen assay plate by adding […] of 0.5 M sodium phosphate buffer, pH 7.0 into each well. Let stand at room temperature for 2-3 minutes.
(7) Place the multiscreen filter plate onto a Millipore Manifold and turn on vacuum to allow buffer to flow through. Turn off vacuum. Transfer 80 μl of the reaction product into each well of the filter plate. Let stand for 2-3 minutes. Turn on vacuum to filter reaction product.
(8) Turn off vacuum. Add 200 μl of 0.5 M sodium phosphate buffer, pH 7.0 into each well to wash filter. Turn on vacuum.
Repeat step (8) three more times.
(9) Remove polypropylene bottom. Spot dry filter at the bottom with paper towel. Air dry filter plate on a bench for 1 hour. Add 40 μl Super Mix scintillant. Seal top of the plate with a tape. Place plate into a Packard carrier or micro-beta carrier.
(10) Count plate using a Packard Topcount or micro-beta counter. Count (for example using Program 10) for ^33P in Top count or ^33P program in micro-beta.
Percent inhibition is calculated after background subtraction as a percent reduction of activity relative to the positive control (average value of the plate excluding the negative controls). For the primary screen hits were chosen as showing ≧75% inhibition.
See. Ferrari et al. 1999. J. Virology 73:1649-1654: “Characterization of soluble Hepatitis C virus RNA-dependent RNA polymerase expressed in E. coli and Takamizawa et all 1991” and J. Virology 65:1105-1113: “Structure and characterization of the Hepatitis C virus genome isolated from human carriers,” both references are hereby incorporated by reference in their entireties, specifically methods of testing inhibition of Hepatitis C Polymerase with test compounds.

For assay [2] the following is noted: U.S. Pat. No. 4,021,451; cited from earlier work.

Consider `CCCC1(CC(=O)O)OCCc2c1sc1c(C)ccc(Br)c21` (stereo not drawn) [Example 1, (5-bromo-8-methyl-1-propyl-3,4-dihydro-1H-[1]benzothieno[2,3-c]pyran-1-yl)acetic acid], for which the IC50 in assay [1] turned out to be 180 nM.

As for `CCCC1(CC(=O)O)OCCc2c1sc1c(C)ccc(C#N)c21` (stereo not drawn) [Example 2, (5-cyano-8-methyl-1-propyl-3,4-dihydro-1H-[1]benzothieno[2,3-c]pyran-1-yl)acetic acid], the IC50 in assay [1] came to 17700 nM.

With `CCC[C@]1(CC(=O)O)OCCc2c1sc1c(C)ccc(C#N)c21` [Example 3, [(1R)-5-cyano-8-methyl-1-propyl-3,4-dihydro-1H-[1]benzothieno[2,3-c]pyran-1-yl]acetic acid], in assay [1], the IC50 amounted to 620 nM.

For `CCC[C@@]1(CC(=O)O)OCCc2c1sc1c(C)ccc(C#N)c21` [Example 4, [(1S)-5-cyano-8-methyl-1-propyl-3,4-dihydro-1H-[1]benzothieno[2,3-c]pyran-1-yl]acetic acid], the IC50 in assay [1] turned out to be 1900 nM.

`CCCC1(CC(=O)O)OCCc2c1sc1c(Cl)ccc(Cl)c21` (stereo not drawn) [Example 5, (5,8-dichloro-1-propyl-3,4-dihydro-1H-[1]benzothieno[2,3-c]pyran-1-yl)acetic acid]: in assay [1], the IC50 was more than 20000 nM and the inhibition at 20 µM was less than 10%.

With `CC1(CC(=O)O)OCCc2c1sc1c(Cl)ccc(Cl)c21` (stereo not drawn) [Example 6, (5,8-chloro-1-methyl-3,4-dihydro-1H-[1]benzothieno[2,3-c]pyran-1-yl)acetic acid], the IC50 in assay [1] (NS5B BK strain, read-out: HCV pol BK IC50) worked out at 280 nM.

`CCCCC1(CC(=O)O)OCCc2c1sc1c(Cl)ccc(Cl)c21` (stereo not drawn) [Example 7, (1-butyl-5,8-dichloro-3,4-dihydro-1H-[1]benzothieno[2,3-c]pyran-1-yl)acetic acid]: the IC50 in assay [1] turned out to be 320 nM.

Turning to `CCC1(CC(=O)O)OCCc2c1sc1c(Cl)ccc(Cl)c21` (stereo not drawn) [Example 8, (5,8-dichloro-1-ethyl-3,4-dihydro-1H-[1]benzothieno[2,3-c]pyran-1-yl)acetic acid], the 50% inhibitory concentration (IC50) in assay [1] came out at 170 nM.

For the compound `CCCC1(CC(=O)O)OCCc2c1sc1c(C)cc(F)cc21` (stereo not drawn) [Example 9, (6-fluoro-8-methyl-1-propyl-3,4-dihydro-1H-[1]benzothieno[2,3-c]pyran-1-yl)acetic acid], the IC50 in assay [1] was 2900 nM.

In the case of `CCCC1(CC(=O)O)OCCc2c1sc1c(C)cc(F)c(C#N)c21` (stereo not drawn) [Example 10, (5-cyano-6-fluoro-8-methyl-1-propyl-3,4-dihydro-1H-[1]benzothieno[2,3-c]pyran-1-yl)acetic acid], the IC50 in assay [1] came out at 130 nM.

Take `CCC[C@@]1(CC(=O)O)OCCc2c1sc1c(C)cc(F)c(C#N)c21` [Example 12, [(1S)-5-cyano-6-fluoro-8-methyl-1-propyl-3,4-dihydro-1H-[1]benzothieno[2,3-c]pyran-1-yl]acetic acid]: in assay [1], the IC50 was found to be 5400 nM.

As for `CC1(CC(=O)O)OCCc2c1sc1ccccc21` (stereo not drawn) [Example 13, (1-methyl-3,4-dihydro-1H-[1]benzothieno[2,3-c]pyran-1-yl)acetic acid], in assay [1], the IC50 is more than 20000 nM and the inhibition at 20 µM is less than 10%.

Take `CCC1(CC(=O)O)OCCc2c1sc1ccccc21` (stereo not drawn) [Example 14, (1-ethyl-3,4-dihydro-1H-[1]benzothieno[2,3-c]pyran-1-yl)acetic acid]: in assay [1], the IC50 is more than 20000 nM and the inhibition at 20 µM was less than 10%.

As for `CCCC1(CC(=O)O)OCCc2c1sc1ccccc21` (stereo not drawn) [Example 15, (1-propyl-3,4-dihydro-1H-[1]benzothieno[2,3-c]pyran-1-yl)acetic acid], in assay [1], the IC50 is more than 20000 nM and the inhibition at 20 µM was less than 10%.

With `CCCCC1(CC(=O)O)OCCc2c1sc1ccccc21` (stereo not drawn) [Example 16, (1-butyl-3,4-dihydro-1H-[1]benzothieno[2,3-c]pyran-1-yl)acetic acid], in assay [1], the concentration for half-maximal inhibition (IC50) was more than 20000 nM and the inhibition at 20 µM was less than 10%.

In the case of `O=C(O)CC1(c2ccccc2)OCCc2c1sc1ccccc21` (stereo not drawn) [Example 17, (1-phenyl-3,4-dihydro-1H-[1]benzothieno[2,3-c]pyran-1-yl)acetic acid], in assay [1], the IC50 is more than 20000 nM and the inhibition at 20 µM worked out at 27%.

For the compound `CC(C)C1(CC(=O)O)OCCc2c1sc1ccccc21` (stereo not drawn) [Example 18, (1-isopropyl-3,4-dihydro-1H-[1]benzothieno[2,3-c]pyran-1-yl)acetic acid], in assay [1], the IC50 is more than 20000 nM and the inhibition at 20 µM was less than 10%.

Regarding `CCOC(=O)CC1(CC(=O)O)OCCc2c1sc1ccccc21` (stereo not drawn) [Example 19, [1-(2-ethoxy-2-oxoethyl)-3,4-dihydro-1H-[1]benzothieno[2,3-c]pyran-1-yl]acetic acid], in assay [1], the IC50 was more than 20000 nM and the inhibition at 20 µM was less than 10%.

As to `CC1(c2ccc(CC(=O)O)cc2)OCCc2c1sc1ccccc21` (stereo not drawn) [[p-(3,4-dihydro-1-methyl-1H-[1]benzothieno[2,3-c]pyran-1-yl)phenyl]-acetic acid], the “biological activity such as antiinflammatory or antibacterial or antifungal activity” value in assay [2] is listed as “lacks any biological activity”.
